What all share (type): functional
The species named for assay [1] is Rattus norvegicus. Description: Dose that causes 50% inhibition in the expected wheal size when given perorally. The note with it: po, read-out: ID50 (the source's name).
Assay [2] deals with Rattus norvegicus. Nature of the assay: % inhibition of antiallergic activity in the rat passive cutaneous anaphylaxis (PCA) test after giving intraperitoneal dose of 16 mg/kg. Conditions: ip.
Assay [3] has as its system Rattus norvegicus. Nature of the assay: % inhibition of antiallergic activity in the rat passive cutaneous anaphylaxis (PCA) test after giving peroral dose of 32 mg/kg. The note with it: route oral.
The test system of assay [4] is Rattus norvegicus. Description: % inhibition of antiallergic activity in the rat passive cutaneous anaphylaxis (PCA) test after giving intraperitoneal dose of 16 mg/kg; Not significant. The note with it: ip.
The test system of assay [5] is Rattus norvegicus. Description: % inhibition of antiallergic activity in the rat passive cutaneous anaphylaxis (PCA) test after giving intraperitoneal dose of 8 mg/kg. Conditions: ip.

In general, inhibition in vivo refers to the percentage by which the read-out fell short of the control. Lower therefore signals little suppression. On to `Cc1ccc2nc3ccc(C(=O)O)cn3c(=O)c2c1`, for which the ED50 in the assay filed under Rattus norvegicus [1] is 3.53 mg/kg. This molecule came in with an inhibition in vivo at 16 mg/kg with Rattus norvegicus [2] of 58%. Also, the inhibition in vivo at 32 mg/kg in the assay with Rattus norvegicus [3] turned out to be 83%.
Molecule `CO/N=C(\C)c1ccc2nc3ccc(C(=O)O)cc3c(=O)n2c1` returned an inhibition in vivo at 16 mg/kg in the assay on Rattus norvegicus [2] of 36%.
`O=C(O)c1ccc2nc3ccccn3c(=O)c2c1` [DOQUALAST] registered an inhibition in vivo at 16 mg/kg in the assay with Rattus norvegicus [4] of 16%.
As to `CC(=O)c1ccc2nc3ccc(C(=O)O)cc3c(=O)n2c1`, in the assay on Rattus norvegicus [2], 16 mg/kg produced 44% inhibition in vivo.
Regarding `CC(C)c1ccc2nc3ccc(C(=O)O)cn3c(=O)c2c1`, the ED50 in the assay filed under Rattus norvegicus [1] amounted to 0.45 mg/kg. The molecule also came in with an inhibition in vivo at 16 mg/kg in the assay on Rattus norvegicus [2] of 76%. For the same molecule, testing at 32 mg/kg in the assay with Rattus norvegicus [3] gave an inhibition in vivo of 87%.
`O=C(O)c1ccc2nc3ccccc3c(=O)n2c1` yielded an inhibition in vivo at 16 mg/kg in the assay with Rattus norvegicus [4] of 17%.
Take `Cc1ccc2nc3ccc(C(=O)O)cc3c(=O)n2c1`: in the assay filed under Rattus norvegicus [1], the ED50 was 7.11 mg/kg. This molecule also displayed an inhibition in vivo at 16 mg/kg in the assay with Rattus norvegicus [2] of 69%. This molecule registered an inhibition in vivo at 32 mg/kg in the assay on Rattus norvegicus [3] of 81%.
For `CC(C)c1ccc2nc3ccc(C(=O)O)cc3c(=O)n2c1` the same measures were 0.026 mg/kg, 81% and 92%.
As to `O=C(O)c1cc(=O)c2c(OCC(O)COc3cccc4oc(C(=O)O)cc(=O)c34)cccc2o1` [CROMOLYN SODIUM], testing at 8 mg/kg in the assay with Rattus norvegicus [5] gave an inhibition in vivo of 46%. This molecule also gave an inhibition in vivo at 32 mg/kg in the assay with Rattus norvegicus [3] of 18%.

These data come from ChEMBL document CHEMBL1121532, “Pyrido[2,1-b]quinazolinecarboxylic acids as orally active antiallergy agents” (1980).
